Data set [1] concerns Aphis gossypii (cotton aphid). Put plainly: Insecticidal activity on cotton aphid, solutions applied to cabbage leaf surface then infested. The format is in vivo. Conditions: for mortality at 50 ppm / mortality at 200 ppm: Aphis gossypii; for mortality at 200 ppm: Rate 200 PPM solution. Here is the method: (§1) Different substituted 1,2,4-triazole compounds of the present disclosure were tested for insecticidal activity on Aphis gossypii (cotton aphid) and Myzus persicae (green peach aphid). The different substituted 1,2,4-triazole compounds were formulated as either 200 PPM solutions or 50 PPM solutions. The 200 PPM solutions or 50 PPM solutions of the different substituted 1,2,4-triazole compounds were applied to a cabbage leaf surface and the resulting samples were subjected to an infestation of Aphis gossypii and Myzus persicae.
(§2) In Table 1, “ND” means mortality data was not determined at this rate.

Data set [2] has as its system Myzus persicae (green peach aphid). Briefly: Insecticidal activity on green peach aphid, solutions applied to cabbage leaf surface then infested. The format is in vivo. Conditions: for mortality at 50 ppm: Rate 50 PPM solution; for mortality at 200 ppm: Rate 200 PPM solution. Here is the method: as §1, §2

Structures are written as SMILES.

`Cc1c(Br)csc1-c1nc(-c2c(F)cccc2Cl)nn1C`: the mortality at 50 ppm in data set [1] (Rate 50 PPM solution) is 96%; in data set [2], 87%. Further, the mortality at 200 ppm was 100% in data set [1] and 63% in data set [2].

Take `Cn1nc(-c2c(F)cccc2F)nc1C1(C)CC1(Cl)Cl` (stereo not drawn) [drawing 12]: in data set [1] (Rate 50 PPM solution), the “Average % mortality, Cotton Aphid” value stood at 95%.

In data set [1] (Rate 50 PPM solution), `Cn1nc(-c2c(Cl)cncc2Cl)nc1-c1ccc(C(F)(F)F)cc1` had a mortality at 50 ppm of 88%. Further, in data set [2], the mortality at 50 ppm was 79% and the mortality at 200 ppm amounted to 87%.

For the molecule `Cc1c(-c2nc(-c3c(F)cccc3Cl)nn2C)csc1-c1ccc(OC(F)(F)C(F)Cl)cc1` (stereo not drawn), the values for the mortality at 50 ppm in data set [1] (Rate 50 PPM solution) and in data set [2] were 84% and 73%, respectively.

Consider `Cn1nc(-c2c(F)cccc2Cl)nc1-c1sc(Cl)c(Cl)c1Cl`, for which the mortality at 50 ppm in data set [1] (Rate 50 PPM solution) is 32%; in data set [2], 81%. Further, the mortality at 200 ppm in data set [1] was 99%.

`Cc1cc(-c2ccc(OC(F)(F)C(F)Cl)cc2)sc1-c1nc(-c2c(F)cccc2Cl)nn1C` (stereo not drawn): the mortality at 50 ppm is 66% in data set [1] (Rate 50 PPM solution) and 75% in data set [2].

In the case of `Cn1nc(-c2c(F)cccc2F)nc1C1(C)CC1(Cl)Cl` (stereo not drawn) [drawing 11], the mortality at 50 ppm in data set [1] (Rate 50 PPM solution) came to 90%. Besides, in data set [2], the mortality at 50 ppm is 13% and the mortality at 200 ppm was found to be 81%.

As usually defined, the mortality is the share of the test organisms that died. The low end stands for a weak lethal effect, the high end for a strong lethal effect.

The record behind these values is patent publication US20130317068A1, “SUBSTITUTED 1,2,4-TRIAZOLE COMPOUNDS AS A SEED TREATMENT TO CONTROL PESTS” (Dow Agrosciences LLC, priority 2012, published 2013).
